Test results taken from patent US12492173B2, “Herbicidal substituted N-tetrazolyl aryl carboxamides” (Bayer Aktiengesellschaft, priority 2019, dated 2025).

Columns and labels:
Type in all cases: in vivo
[1] = test system: Lolium multiflorum; assay: Post-emergence herbicidal action, LOLMU; parameters: key: % herbicidal action: 100 = plants died, 0 = like control
Procedure: (§1) [table] 2. Post-Emergence Herbicidal Action Against Harmful Plants Seeds of monocotyledonous and dicotyledonous weed and crop plants are laid out in sandy loam soil in wood-fiber pots, covered with soil and cultivated in a greenhouse under good growth conditions. 2 to 3 weeks after sowing, the test plants are treated at the one-leaf stage. The compounds of the invention, formulated in the form of wettable powders (WP) or as emulsion concentrates (EC), are then sprayed onto the green parts of the plants in the form of an aqueous suspension or emulsion at a water application rate equating to 600 to 800 l/ha, with addition of 0.2% wetting agent. After the test plants have been left to stand in the greenhouse under optimal growth conditions for about 3 weeks, the action of the preparations is assessed visually in comparison to untreated controls (herbicidal action in percent (%): 100% activity=the plants have died, 0% activity=like control plants). […] The tables below illustrate, in an exemplary manner, the post-emergence herbicidal action of the compounds according to the invention, the herbicidal activity being stated in percent. In the experiments that follow, herbicidal action of numerous inventive compounds and the known compounds that are structurally closest from D1 (WO 2012/028579 A1) and D2 (WO 2018/202535 A1) were compared under the above-specified conditions by the pre-emergence and post-emergence method. The example numbers given in the tables relate to the compounds disclosed in the respective documents. In addition to the compounds disclosed in D1 and D2, the following compounds V-1 to V-14 that are encompassed by D1 or D2 but are not compounds specified therein were used in the comparative experiments: • V-1: 2-(methylsulfanyl)-3-(methylsulfinyl)-N-(1-methyl-1H-tetrazol-5-yl)-4-(trifluoromethyl)benzamide • V-2: 2-(methylsulfanyl)-3-(methylsulfonyl)-N-(1-methyl-1H-tetrazol-5-yl)-4-(trifluoromethyl)benzamide • V-3: 2,3-bis(ethylsulfanyl)-N-(1-methyl-1H-tetrazol-5-yl)-4-(trifluoromethyl)benzamide • V-4: 2-chloro-3-(ethylsulfanyl)-N-(1-methyl-1H-tetrazol-5-yl)-4-(trifluoromethyl)benzamide • V-5: 2-chloro-4-iodo-3-(methylsulfanyl)-N-(1-methyl-1H-tetrazol-5-yl)benzamide • V-6: 2-chloro-4-iodo-3-(methylsulfinyl)-N-(1-methyl-1H-tetrazol-5-yl)benzamide • V-7: 2-chloro-4-iodo-3-(methylsulfonyl)-N-(1-methyl-1H-tetrazol-5-yl)benzamide • V-8: 2-bromo-3-(methylsulfanyl)-N-(1-methyl-1H-tetrazol-5-yl)-4-(trifluoromethyl)benzamide • V-9: 2-bromo-3-(methylsulfinyl)-N-(1-methyl-1H-tetrazol-5-yl)-4-(trifluoromethyl)benzamide • V-10: 2-bromo-3-(methylsulfonyl)-N-(1-methyl-1H-tetrazol-5-yl)-4-(trifluoromethyl)benzamide • V-11: 2-bromo-3-(ethylsulfanyl)-N-(1-methyl-1H-tetrazol-5-yl)-4-(trifluoromethyl)benzamide • V-12: 2-bromo-3-(ethylsulfinyl)-N-(1-methyl-1H-tetrazol-5-yl)-4-(trifluoromethyl)benzamide • V-13: 2-bromo-3-(ethylsulfonyl)-N-(1-methyl-1-1H-tetrazol-5-yl)-4-(trifluoromethyl)benzamide • V-14: 2-cyclopropyl-3-(ethylsulfanyl)-N-(1-methyl-1H-tetrazol-5-yl)-4-(trifluoromethyl)benzamide Herbicidal Pre-Emergence Action: […]

[2] = test system: Cyperus esculentus; assay: Post-emergence herbicidal action, CYPES; parameters: key: % herbicidal action vs untreated; 100 = plants died, 0 = like control
Procedure: as §1

[3] = test system: Hordeum murinum; assay: Pre-emergence herbicidal action, HORMU; conditions: dosage 320 g/ha; for herbicidal activity HORMU: scored visually after 3 weeks vs untreated controls (100% = plants have died)
Source text: (§2) 1. Pre-Emergence Herbicidal Action Against Harmful Plants Seeds of monocotyledonous and dicotyledonous weed plants and crop plants are laid out in sandy loam soil in wood-fiber pots and covered with soil. The compounds of the invention, formulated in the form of wettable powders (WP) or as emulsion concentrates (EC), are then applied to the surface of the covering soil in the form of an aqueous suspension or emulsion at a water application rate equating to 600 to 800 l/ha, with addition of 0.2% wetting agent. After the treatment, the pots are placed in a greenhouse and kept under good growth conditions for the trial plants. The damage to the test plants is scored visually after a test period of 3 weeks by comparison with untreated controls (herbicidal activity in percent (%): 100% activity=the plants have died, 0% activity=like control plants). […] The tables below illustrate, in an exemplary manner, the […] herbicidal action of the compounds according to the invention, the herbicidal activity being stated in percent. [table] In the experiments that follow, herbicidal action of numerous inventive compounds and the known compounds that are structurally closest from D1 (WO 2012/028579 A1) and D2 (WO 2018/202535 A1) were compared under the above-specified conditions by the pre-emergence and post-emergence method. The example numbers given in the tables relate to the compounds disclosed in the respective documents. In addition to the compounds disclosed in D1 and D2, the following compounds V-1 to V-14 that are encompassed by D1 or D2 but are not compounds specified therein were used in the comparative experiments: • V-1: 2-(methylsulfanyl)-3-(methylsulfinyl)-N-(1-methyl-1H-tetrazol-5-yl)-4-(trifluoromethyl)benzamide • V-2: 2-(methylsulfanyl)-3-(methylsulfonyl)-N-(1-methyl-1H-tetrazol-5-yl)-4-(trifluoromethyl)benzamide • V-3: 2,3-bis(ethylsulfanyl)-N-(1-methyl-1H-tetrazol-5-yl)-4-(trifluoromethyl)benzamide • V-4: 2-chloro-3-(ethylsulfanyl)-N-(1-methyl-1H-tetrazol-5-yl)-4-(trifluoromethyl)benzamide • V-5: 2-chloro-4-iodo-3-(methylsulfanyl)-N-(1-methyl-1H-tetrazol-5-yl)benzamide • V-6: 2-chloro-4-iodo-3-(methylsulfinyl)-N-(1-methyl-1H-tetrazol-5-yl)benzamide • V-7: 2-chloro-4-iodo-3-(methylsulfonyl)-N-(1-methyl-1H-tetrazol-5-yl)benzamide • V-8: 2-bromo-3-(methylsulfanyl)-N-(1-methyl-1H-tetrazol-5-yl)-4-(trifluoromethyl)benzamide • V-9: 2-bromo-3-(methylsulfinyl)-N-(1-methyl-1H-tetrazol-5-yl)-4-(trifluoromethyl)benzamide • V-10: 2-bromo-3-(methylsulfonyl)-N-(1-methyl-1H-tetrazol-5-yl)-4-(trifluoromethyl)benzamide • V-11: 2-bromo-3-(ethylsulfanyl)-N-(1-methyl-1H-tetrazol-5-yl)-4-(trifluoromethyl)benzamide • V-12: 2-bromo-3-(ethylsulfinyl)-N-(1-methyl-1H-tetrazol-5-yl)-4-(trifluoromethyl)benzamide • V-13: 2-bromo-3-(ethylsulfonyl)-N-(1-methyl-1-1H-tetrazol-5-yl)-4-(trifluoromethyl)benzamide • V-14: 2-cyclopropyl-3-(ethylsulfanyl)-N-(1-methyl-1H-tetrazol-5-yl)-4-(trifluoromethyl)benzamide Herbicidal Pre-Emergence Action: […]

[4] = test system: Hordeum murinum; assay: Post-emergence herbicidal action, HORMU; parameters: key: % herbicidal action: 100 = plants died, 0 = like control
Procedure: as §1

[5] = test system: Digitaria sanguinalis; assay: Post-emergence herbicidal action, DIGSA; parameters: key: % herbicidal action: 100 = plants died, 0 = like control; conditions: Dosage 80 g/ha
Procedure: as §1

[6] = test system: Digitaria sanguinalis; assay: Pre-emergence herbicidal action, DIGSA; conditions: dosage 320 g/ha, scored visually after 3 weeks vs untreated controls (100% = plants have died)
Source text: as §2

[7] = comparative experiment, post-emergence, 20 g of a.i./ha

CCn1nnnc1NC(=O)c1ccc(C(F)(F)F)c(C[S+](C)[O-])c1Cl (stereo not shown) [Example 2-297]
herbicidal action LOLMU ([1]; post-emergence, dosage 80 g/ha): 90%

CCSCc1c(C(F)(F)F)ccc(C(=O)Nc2nnnn2CC)c1Cl [Example 2-299]
herbicidal action LOLMU ([1]; post-emergence, dosage 80 g/ha): 90% | herbicidal action CYPES ([2]; post-emergence, dosage 80 g/ha): 90%

CCn1nnnc1NC(=O)c1ccc(C(F)(F)F)c(CSCC(F)(F)F)c1Cl [Example 2-311]
herbicidal activity HORMU [3]: 80% | herbicidal action HORMU ([4]; Dosage 80 g/ha): 80

CCn1nnnc1NC(=O)c1ccc(C(F)F)c(CSC)c1Cl [Example 2-320]
herbicidal action LOLMU ([1]; Dosage 80 g/ha): 80 | herbicidal action CYPES ([2]; Dosage 80 g/ha): 80

CCn1nnnc1NC(=O)c1ccc(C(F)F)c(CS(C)(=O)=O)c1Cl [Example 2-322]
herbicidal action LOLMU ([1]; post-emergence, dosage 80 g/ha): 80%

CCSCc1c(C(F)F)ccc(C(=O)Nc2nnnn2CC)c1Cl [Example 2-323]
herbicidal action LOLMU ([1]; post-emergence, dosage 80 g/ha): 80% | herbicidal action CYPES ([2]; post-emergence, dosage 80 g/ha): 80%

CCn1nnnc1NC(=O)c1ccc(I)c(C[S+](C)[O-])c1Cl (stereo not shown) [Example 2-363]
herbicidal activity HORMU [3]: 100% | herbicidal action HORMU ([4]; Dosage 80 g/ha): 90

CCn1nnnc1NC(=O)c1ccc(C(F)(F)F)c(C[S+]([O-])CC)c1Br (stereo not shown) [Example 2-384]
herbicidal action LOLMU ([1]; post-emergence, dosage 80 g/ha): 80%

CCn1nnnc1NC(=O)c1ccc(C(F)(F)F)c(CS(=O)(=O)CC)c1Br [Example 2-385]
herbicidal action CYPES ([2]; post-emergence, dosage 80 g/ha): 90%

CCCn1nnnc1NC(=O)c1ccc(C(F)(F)F)c(CS(C)(=O)=O)c1SC [Example 3-163]
herbicidal activity HORMU [3]: 90% | herbicidal action HORMU ([4]; Dosage 80 g/ha): 80

CCCn1nnnc1NC(=O)c1ccc(C(F)F)c(CSC)c1SC [Example 3-170]
herbicidal action DIGSA [5]: 100 | herbicidal activity DIGSA [6]: 100%

C=CCSCc1c(C(F)(F)F)ccc(C(=O)Nc2nnnn2CCC)c1Cl [Example 3-308]
herbicidal activity HORMU [3]: 80% | herbicidal action CYPES ([2]; Dosage 80 g/ha): 90

CCCn1nnnc1NC(=O)c1ccc(C(F)(F)F)c(CSCC(F)(F)F)c1Cl [Example 3-311]
herbicidal action HORMU ([4]; Dosage 80 g/ha): 90

CCCn1nnnc1NC(=O)c1ccc(C(F)(F)F)c(CSCC2CC2)c1Cl [Example 3-314]
herbicidal activity HORMU [3]: 90% | herbicidal action CYPES ([2]; post-emergence, dosage 80 g/ha): 80% | herbicidal action HORMU ([4]; post-emergence, dosage 80 g/ha): 90%

CCCn1nnnc1NC(=O)c1ccc(C(F)F)c(CS(=O)(=O)CC)c1Cl [Example 3-325]
herbicidal activity HORMU [3]: 100% | herbicidal action CYPES ([2]; Dosage 80 g/ha): 90 | herbicidal action HORMU ([4]; Dosage 80 g/ha): 90

CCCn1nnnc1NC(=O)c1ccc(I)c(C[S+](C)[O-])c1Cl (stereo not shown) [Example 3-363]
herbicidal action HORMU [3]: 100%

CCCn1nnnc1NC(=O)c1ccc(C(F)(F)F)c(CS(C)(=O)=O)c1Br [Example 3-382]
herbicidal action CYPES ([2]; Dosage 80 g/ha): 80

CCS(=O)(=O)c1c(C(F)(F)F)ccc(C(=O)Nc2nnnn2C)c1Br [Example V-13, 2-bromo-3-(ethylsulfonyl)-N-(1-methyl-1-1H-tetrazol-5-yl)-4-(trifluoromethyl)benzamide, reference compound]
Herbicidal action against LOLMU [1, 7]: 0 | Herbicidal action against CYPES [2, 7]: 0
